{"source": "patent US20080031986A1", "about": "(Metaproteomics, LLC, priority 2005, published 2008)", "key": {"COX-2": {"test_system": "COX-2", "settings": "Warner et al. 1999; cited from earlier work"}, "[1]": {"test_system": "insulin-resistant 3T3-L1 adipocytes", "test": "Adiponectin secretion from insulin-resistant 3T3-L1 adipocytes", "assay_type": "cell-based, murine", "settings": "slope of Hofstee plot", "description": "3T3-L1 cells were seeded at an initial density of 1×10^4 cells/cm^2 in 96-well plates. For two days, the cells were allowed grow to reach confluence. Following confluence, the cells were forced to differentiate into adipocytes by the addition of differentiation medium; this medium consisted of (1) 10% FBS/DMEM (high glucose); (2) 0.5 mM methylisobutylxanthine; (3) 0.5 μM dexamethasone and (4) 10 μg/ml insulin (MDI medium). From Day 3 through Day 5, the medium was changed to post-differentiation medium consisting of 10 μg/ml insulin in 10% FBS/DMEM.\nBriefly, on Day 6, cells were maintained in serum-free media containing 0.5% bovine serum albumin (BSA) for three hours and then treated with 1 μg insulin/ml plus solvent or insulin plus test material. […] Twenty-four hours later, the supernatant medium was sampled for adiponectin determination.\nStatistical Calculations and Interpretation—All assays were preformed in duplicate. […] Differences between the doses were determined using the student's t-test without correction for multiple comparisons; the nominal five percent probability of a type I error was selected.\nSubstituting {relative adiponectin secretion/[concentration]} for the independent variable v/[S] and {relative adiponectin secretion} for the dependant variable {v}, produced a relationship of the form y=mx+b. […]"}, "3T3-L1 adipocytes": {"test_system": "3T3-L1 adipocytes", "test": "Lipogenesis (Oil Red O / BODIPY) in 3T3-L1 adipocytes", "assay_type": "cell-based, murine", "settings": "for adipogenic response versus positive controls indomethacin and troglitazone: Day 0 to D6/7", "description": "Prior to experiments, cells were cultured in DMEM containing 10% FBS-HI added 50 units penicillin/ml and 50 μg streptomycin/ml, and maintained in log phase prior to experimental setup. Cells were grown in a 5% CO2 humidified incubator at 37° C. Components of the pre-confluent medium included (1) 10% FBS/DMEM containing 4.5 g glucose/L; (2) 50 U/ml penicillin; and (3) 50 μg/ml streptomycin. Growth medium was made by adding 50 ml of heat inactivated FBS and 5 ml of penicillin/streptomycin to 500 ml DMEM. This medium was stored at 4° C. Before use, the medium was warmed to 37° C. in a water bath.\n3T3-T1 cells were seeded at an initial density of 6×10^4 cells/cm^2 in 24-well plates. For two days, the cells were allowed grow to reach confluence. Following confluence, the cells were forced to differentiate into adipocytes by the addition of differentiation medium; this medium consisted of (1) 10% FBS/DMEM (high glucose); (2) 0.5 mM methylisobutylxanthine; (3) 0.5 μM dexamethasone and (4) 10 μg/ml insulin (MDI medium). After three days, the medium was changed to post-differentiation medium consisting of 10 μg/ml insulin in 10% FBS/DMEM.\nWhenever fresh media were added, fresh test material was also added.\nMonolayer cells were washed with PBS (phosphate buffered saline, Mediatech) and fixed with 10% formaldehyde for ten minutes. Fixed cells were stained with an Oil Red O working solution of three parts 0.6% Oil Red O/isopropanol stock solution and two parts water for one hour and the excess stain was washed once with water. The resulting stained oil droplets were extracted from the cells with isopropanol and quantified by spectrophotometric analysis at 540 nm (MEL312e BIO-KINETICS READER, Bio-Tek Instruments, Winooski, Vt.).\nBriefly, media were removed and cells were washed once with non-sterile PBS. A stock 1000× BODIPY/DMSO solution was made by dissolving 1 mg BODIPY in 1 ml DMSO (1,000 μg BODIPY/ml). A working BODIPY solution was then made by adding 10 μl of the stock solution to 990 μl PBS for a final BODIPY concentration in the working solution of 0.01 μg/μl. One-hundred μl of this working solution (1 μg BODIPY) was added to each well of a 96-well microtiter plate. After 15 min on an orbital shaker (DS-500, VWR Scientific Products, South Plainfield, N.J.) at ambient temperature, the cells were washed with 100 μl PBS followed by the addition of 100 μl PBS for reading for spectrofluorometric determination of BODIPY incorporation into the cells. […]\nTest materials were added in dimethyl sulfoxide at Day 0 of differentiation and every two days throughout the maturation phase (Day 6/7). […] Differentiated 3T3-L1 cells were stained with 0.2% Oil Red O. The resulting stained oil droplets were dissolved with isopropanol and quantified by spectrophotometric analysis at 530 nm."}, "[2]": {"test_system": "TNFα-treated 3T3-L1 adipocytes", "test": "Adiponectin secretion from TNFα-treated 3T3-L1 adipocytes", "assay_type": "cell-based, murine", "settings": "for maximum increase of adiponectin secretion over TNFα solvent control: 10 ng TNFα/ml", "description": "3T3-L1 cells were seeded at an initial density of 1×10^4 cells/cm^2 in 96-well plates. For two days, the cells were allowed grow to reach confluence. Following confluence, the cells were forced to differentiate into adipocytes by the addition of differentiation medium; this medium consisted of (1) 10% FBS/DMEM (high glucose); (2) 0.5 mM methylisobutylxanthine; (3) 0.5 μM dexamethasone and (4) 10 μg/ml insulin (MDI medium). From Day 3 through Day 5, the medium was changed to post-differentiation medium consisting of 10% FBS in DMEM. […] On Day 6, the supernatant medium was sampled for adiponectin determination.\nStatistical Calculations and Interpretation—All assays were preformed in duplicate. […] Differences among the doses and test agents were determined using the Student's t-test without correction for multiple comparisons; the nominal five percent probability of a type I error was selected."}, "db/db mice": {"test_system": "db/db mice", "test": "Non-fasting serum glucose and insulin in db/db diabetic mice", "assay_type": "in vivo, mouse", "settings": "three daily doses by gavage", "description": "The Model—Male, C57BLKS/J m^+/m^+Lepr^db (db/db) mice were used to assess the potential of the test materials to reduce fasting serum glucose or insulin concentrations.\nTesting Procedure—Test substances were administered daily by gavage in 0.2% Tween-80. Serum was collected from the retroorbital sinus before the initial dose and ninety minutes after the third and final dose. Non-fasting serum glucose was determined enzymatically by the mutarotase/glucose oxidase method and serum insulin was determined by a mouse specific ELISA."}, "DBA/J mice": {"test_system": "DBA/J mice", "test": "Collagen induced rheumatoid arthritis murine model", "assay_type": "in vivo, mouse", "settings": "10 mg/kg, days 30-42"}}}
{"compound": "CC(=O)Oc1ccccc1C(=O)O", "note": "[Aspirin, aspirin]", "values": [{"measurement": "published values for direct COX-2 inhibition", "setting": "COX-2", "value": "1.4 to 50", "unit": "µg/mL"}]}
{"compound": "CC(C)CCC1=C(O)C(C(=O)C(C)C)=C(O)C(CCC(C)C)(CCC(C)C)C1=O", "note": "[Hexahydro colupulone, hexahydrocolupulone]", "values": [{"measurement": "Test Material at Half Maximal Secretion", "setting": "[1]", "value": 3.2, "unit": "µg/mL"}, {"measurement": "adipogenic response versus positive controls indomethacin and troglitazone", "setting": "3T3-L1 adipocytes", "value": "failed to elicit a lipogenic response greater than the solvent controls"}]}
{"compound": "CCc1ccc(CCOc2ccc(CC3SC(=O)NC3=O)cc2)nc1", "note": "(centres unmarked) [Pioglitazone, pioglitazone]", "values": [{"measurement": "maximum increase of adiponectin secretion over TNFα solvent control", "setting": "[2]", "value": 80, "unit": "%"}, {"measurement": "Adiponectin Index, Observed", "setting": "[2]; 1.0 μg/ml, indexed to TNFα control (Table 26)", "value": 1.80}]}
{"compound": "Cc1c(C)c2c(c(C)c1O)CCC(C)(COc1ccc(CC3SC(=O)NC3=O)cc1)O2", "note": "(centres unmarked) [Troglitazone, troglitazone]", "values": [{"measurement": "maximum increase of adiponectin secretion over TNFα solvent control", "setting": "[2]", "value": 51, "unit": "%"}]}
{"compound": "COc1cc(O)c(CC=C(C)C)c(O)c1C(=O)/C=C/c1ccc(O)cc1", "note": "[Xanthohumol, xanthohumol]", "values": [{"measurement": "adipogenic response versus positive controls indomethacin and troglitazone", "setting": "3T3-L1 adipocytes", "value": "comparable to indomethacin and troglitazone"}, {"measurement": "serum glucose or insulin", "setting": "db/db mice", "value": "reduction in serum glucose with no effect on insulin"}]}
{"compound": "CN(C)C(=N)N=C(N)N", "note": "[metformin, reference compound]", "values": [{"measurement": "lipogenic response / lipogenic index relative to solvent control", "setting": "3T3-L1 adipocytes; Oil Red O, Acacia samples 50 μg/ml", "value": 0.79}]}
{"compound": "C[C@]12C=CC(=O)C=C1CC[C@@H]1[C@@H]2[C@@H](O)C[C@@]2(C)[C@H]1CC[C@]2(O)C(=O)CO", "note": "[prednisolone]", "values": [{"measurement": "arthritic index", "setting": "DBA/J mice", "value": "Significant reductions"}]}
{"compound": "Beta acids", "values": [{"measurement": "adipogenic response versus positive controls indomethacin and troglitazone", "setting": "3T3-L1 adipocytes", "value": "comparable to indomethacin and troglitazone"}]}
